Experimental findings from patent publication US10603369B2, “Combination vaccines with lower doses of antigen and/or adjuvant” (GlaxoSmithKline Biologicals SA, priority 2011, dated 2020) are described below.

Series [1] can be described thus: Adsorption of TLR agonist to aluminium hydroxide adjuvant. The format is physicochemical.
A short description of series [2]: physchem. The note with it: water.

Converted amounts (≈) assume the structure as drawn.

Broadly, the solubility is the dissolved amount per volume that the medium holds. A lower solubility goes with little dissolved substance. Take `Cc1ccc2c(c1)nc(N)c1ncc(CCc3ccc(OCCOCCOCCC(F)(F)P(=O)(O)O)cc3C)cc12` [compound T]: the “adsorption to aluminium hydroxide” value in series [1] is reported as “adsorbs well”. The same compound yielded a solubility in series [2] of around 4000 µg/mL (≈ 6.78 mM).
